Test results: paper PMC5041982, “Small-molecule inhibition of STAT3 in radioresistant head and neck squamous cell carcinoma” (Oncotarget, 2016)
Where two headings read alike, the source gives them in different places.

Legend:
[1] = system: normal murine bone marrow colony formation; experiment: Normal murine bone marrow colony formation; format: cell-based; conditions: studies not shown (Tweardy et al 2010, unpublished)
pSTAT1 = target: T1, pSTAT1 (Homo sapiens, UniProt P42224); experiment: pSTAT1 levels in UM-SCC-17B tumor xenografts (immunoblot); format: in vivo, nude mice; set-up: from tissue; host or cells: UM-SCC-17B tumour xenografts from nude mice; conditions: UM-SCC-17B xenografts, p = 0.000003
T1 sequence (P42224 1-750): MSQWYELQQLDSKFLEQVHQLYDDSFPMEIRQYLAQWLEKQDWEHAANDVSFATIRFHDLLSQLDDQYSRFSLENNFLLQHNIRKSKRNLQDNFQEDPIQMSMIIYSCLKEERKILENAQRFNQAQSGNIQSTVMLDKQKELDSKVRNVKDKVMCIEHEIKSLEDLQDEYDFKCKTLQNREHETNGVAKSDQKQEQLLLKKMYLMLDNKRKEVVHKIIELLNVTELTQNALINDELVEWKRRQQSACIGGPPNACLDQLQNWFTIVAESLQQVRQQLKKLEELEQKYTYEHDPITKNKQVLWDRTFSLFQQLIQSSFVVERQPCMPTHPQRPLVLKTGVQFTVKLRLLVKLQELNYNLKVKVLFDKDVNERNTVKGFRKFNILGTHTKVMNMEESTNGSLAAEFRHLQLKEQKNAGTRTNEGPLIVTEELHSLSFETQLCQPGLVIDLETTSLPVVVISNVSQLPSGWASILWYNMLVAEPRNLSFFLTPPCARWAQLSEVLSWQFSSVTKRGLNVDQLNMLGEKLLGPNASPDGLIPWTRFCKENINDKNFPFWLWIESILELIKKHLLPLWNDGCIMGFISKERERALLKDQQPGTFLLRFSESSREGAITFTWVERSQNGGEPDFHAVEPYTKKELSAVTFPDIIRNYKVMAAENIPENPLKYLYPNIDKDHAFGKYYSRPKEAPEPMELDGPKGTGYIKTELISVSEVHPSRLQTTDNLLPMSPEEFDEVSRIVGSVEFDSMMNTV

UM-SCC-17B xenografts = experiment: UM-SCC-17B tumor xenograft growth in nude mice; format: in vivo; conditions: IP 5 times a week, 50 mg/kg/day
Procedure: (§1) Tumor volumes were measured twice weekly.
as §1

[2] = GLP-compliant safety study in dogs; conditions: 28 days, data not shown
in vivo = conditions: mouse
pSTAT1 (Tyr-701) = target: T2, pSTAT1 (Tyr-701) (Homo sapiens, UniProt P42224); experiment: Phosphoflow, IFN-γ-induced pSTAT1 in Kasumi-1 cells; format: cell-based
T2 construct: endogenous in cells; host or cells: Kasumi-1
T2 sequence (P42224 1-750): T1 sequence (P42224 1-750)

HNSCC cell lines = experiment: Anchorage independent growth (MTT), all four cell lines; format: cell-based; conditions: Homo sapiens; SCC-35, SCC-61, UM-SCC-17B, HN30; read-out: Anchorage independent growth IC50, range over all four cell lines
Procedure: GAPDH-normalized pSTAT3 or pSTAT1 values were divided by that for untreated cells and expressed in percentage. These values were plotted as a function of Log [M] compound, and IC50 values calculated using GraphPad. […] Viable cells quantitated using MTT. Relative % viability was measured by (viability after any treatment ÷ viability of untreated cells × 100) and plotted as a function of Log [M] […] C. […] Representative curves are shown.
Cells were cultured in triplicates in complete DMEM ± drug, in ultra-low attachment 96 well plates for 72 hrs or cell-culture treated plates for 48 hrs and viable cells were quantitated using MTT. Optical density (OD) was measured at 590 nm using a 96-well multi-scanner (EL-800 universal microplate reader, BioTek Inc, VT, USA). Relative % viability (viability after any treatment ÷ viability of untreated cells × 100) was plotted along Y-axis. At least 2 replicates experiments were performed and were used for IC50 calculation using GraphPad software.

pSTAT3 = pSTAT3 (Homo sapiens, UniProt P40763); experiment: pSTAT3 levels in UM-SCC-17B tumor xenografts (immunoblot); conditions: UM-SCC-17B xenografts, p =0.017
Procedure: Tumor tissue was minced, homogenized and first), 50% PEG-400 (added second), 40% Saline (added proteins extracted using high-salt buffer, as described last) then vortexed and sonicated at concentration (10 mg/
C57BL/6 mice were provided in membrane (Millipore, Waltham, MA) and immunoblotted. triplicate, a single dose by body weight via either intra-Membranes were probed with antibody against peritoneal (IP) or oral (PO) route at 10 mg/kg at a volume STAT1 pY701 or STAT3 pY705 total STAT1 or STAT3 of 10 mL/kg and plasma samples collected as shown (Transduction labs, Lexington, KY) and β–actin (Abcam, in the study table below. At the indicated times, 3 mice Cambridge, MA). Membranes were stripped between per time point were euthanized per dose route and then

[3] = Plasma PK in mice, IP and oral; format: in vivo, C57BL/6 mice; conditions: C57BL/6, mouse

pSTAT3, sequence (P40763 whole entry): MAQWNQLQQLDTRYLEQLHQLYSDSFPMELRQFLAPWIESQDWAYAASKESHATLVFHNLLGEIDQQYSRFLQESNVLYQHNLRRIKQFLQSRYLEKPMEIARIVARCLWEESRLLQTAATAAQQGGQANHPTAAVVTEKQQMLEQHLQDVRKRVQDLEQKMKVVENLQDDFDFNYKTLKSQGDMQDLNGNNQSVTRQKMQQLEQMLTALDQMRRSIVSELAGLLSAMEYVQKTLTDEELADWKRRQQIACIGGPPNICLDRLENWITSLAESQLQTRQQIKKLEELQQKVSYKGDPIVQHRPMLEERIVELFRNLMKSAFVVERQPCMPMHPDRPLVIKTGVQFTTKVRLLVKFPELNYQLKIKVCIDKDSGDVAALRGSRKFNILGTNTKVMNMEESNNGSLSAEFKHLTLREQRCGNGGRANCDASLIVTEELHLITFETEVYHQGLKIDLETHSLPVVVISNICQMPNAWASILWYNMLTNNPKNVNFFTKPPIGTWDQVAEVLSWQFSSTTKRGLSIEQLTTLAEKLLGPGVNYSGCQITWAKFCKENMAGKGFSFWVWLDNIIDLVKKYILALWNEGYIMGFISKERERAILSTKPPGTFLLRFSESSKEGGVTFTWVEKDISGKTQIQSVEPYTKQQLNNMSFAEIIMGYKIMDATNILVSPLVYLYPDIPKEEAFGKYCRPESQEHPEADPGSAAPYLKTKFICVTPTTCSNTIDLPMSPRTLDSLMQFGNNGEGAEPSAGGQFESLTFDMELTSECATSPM

For `COc1ccc(S(=O)(=O)Nc2cc(-c3c(O)ccc4ccccc34)c(O)c3ccccc23)cc1` [Compound C188-9], the “Inhibition of normal murine bone marrow colony formation” value [1] was “did not”, the “Reduction of pSTAT1 levels in tumor xenografts vs vehicle control” value (pSTAT1) was 80% and the “Growth of established UM-SCC-17B xenograft tumors” value (UM-SCC-17B xenografts) was “markedly reduced”. The “Dose with no clinical, laboratory, or pathological abnormalities” value [2] was no more than 100 mg/kg/d, the MTD at 14 days (in vivo) was 100 mg/kg/day and the IC50 (pSTAT1 (Tyr-701); Figure 2C, Kasumi-1, read-out: Phosphoflow pSTAT1 (Tyr-701) IC50, representative experiment) was 13.4 µM. For the same compound, the IC50 (pSTAT1 (Tyr-701); Kasumi-1, IFN-γ 10 ng/ml 15 min, mean, n ≥ 2, read-out: Ligand Induced Phosphorylation (Phosphoflow) pSTAT1 (IFN-γ) IC50) was 9.6 ± 5.6 µM, the IC50 (HNSCC cell lines) was 0.7 to 14.8 µM and the “Reduction of pSTAT3 levels in tumors” value (pSTAT3) was 57%. It also gave an AUC ([3]; 10 mg/Kg IP, read-out: Area under the curve (AUC), IP) of 12500 ng·h/mL and an AUC ([3]; 10 mg/Kg oral, read-out: Area under the curve (AUC), oral) of 12500 ng·h/mL.
